# Measurements: patent US20240287054A1, “COMPOUNDS THAT BIND NON-CANONICAL G-QUADRUPLEX STRUCTURES AND METHODS OF MAKING AND USING THE SAME” (The U.S.A., as Represented by the Secretary, Department of …, priority 2021, published 2024)
# Tests used:
# MYCN G4 DNA [1] = test: Fluorescence intensity assay (FIA) with 5′Cy5-labeled MYCN G4 DNA; assay type: binding, human; settings: for Kd: 5′Cy5-labeled MYCN G4 titrated with compound; for positive binding in FIA (>10% quenching): single concentration 100 μM compound, 5′Cy5-MYCN G4
# Description: (§1) Fluorescence intensity assay. In this disclosure, fluorescence intensity assay (FIA) was used for both validation of hit binding at a single dose and binding affinity determination. For validating hit compounds from SMM screening, 100 μM solution of each compound was prepared in triplicate in a 96 well-plate (Costar, black side clear bottom), resulting in 5% DMSO concentration. 5′Cy5-labeled MYCN G4 DNA was annealed as described above, then added into the well plate resulting in a final concentration of 100 nM. The plate was incubated shaking for 30 min, followed by centrifuging at 500 rpm for 2 minutes. The fluorescence intensity was then measured on a Synergy Mx microplate reader (BioTek) at Ex 649 nm/Em 670 nm. TMPyP4/DMSO were used as positive and negative controls, respectively. In certain examples, compounds were considered binders when a change of >10% change in fluorescence intensity was observed compared to that of negative control (DMSO solution). For binding affinity measurement, small molecule solutions were prepared as serial dilutions in DMSO. Then a final test plate was prepared by adding 5 μL small molecule solutions and 10 μL annealed DNA samples into 85 μL buffer solutions, resulting in the final small molecule concentrations from 0 to 250 μM (5% final DMSO concentration). The fluorescence intensities were normalized, and the binding affinity was calculated by fitting the curve using one-site total model in GraphPad Prism 8.3.1 software. The fluorescence titration using 3′-labeled oligonucleotides was also performed the same way.
# dsDNA = test: CD melting test of dsDNA; assay type: binding; settings: CD melting of dsDNA with compound
# MYCN G4 DNA with 10×tRNA = test: Fluorescence titration of MYCN G4 in presence/absence of excess tRNA; assay type: binding, human; settings: presence/absence of 10×tRNA
# Description: 2-Aminopurine (2-AP) fluorescence titration. Fluorescence titrations based on 2-aminopurine labeling were performed using the protocol reported previously. Briefly, MYCN G4 oligonucleotide with a 2-AP substitution at either A11 or A18 position was annealed by heating the sample to 95° C. for 5 min and cooling down to RT slowly. The oligonucleotide with folded structure was diluted to 10 μM in Tris buffer (10 mM Tris, pH7.0, 100 mM KCl, 0.005% Tween 20) and prepared in a black 96-well plate (Costar) in triplicate as designed. Small molecules were diluted in DMSO to obtain a series of solutions with concentrations ranging from 0.1 to 5 mM, and then diluted by 20 times added into the plate (5% DMSO final concentration). The final concentration of 2-AP DNA was 1 μM in the well plate. To obtain the background fluorescence, small molecule solutions without DNA were also prepared in the same plate. After incubation for 30 min at RT, the plate was briefly centrifuged and scanned in Synergy Mx microplate reader (BioTek) with Ex 310 nm/Em 365 nm. Fluorescence signals were calculated by averaging the intensities in triplicate wells after subtracting the references. Finally, the binding signals were normalized and the KD value was determined by fitting the curve using a nonlinear sigmoidal dose-response model with a variable slope in GraphPad Prism 8.3.1 software.
# [2] = target: mutated/truncated MYCN G4 DNA; test: FIA titration with mutated long loop and truncated (no hairpin) MYCN G4 DNAs; assay type: binding, human
# Description: as §1
# To further understand the binding details between compound MY-1 and MYCN G4, a series of FIA studies were designed and performed. […] After incubating 100 μM MY-1 with labeled DNA samples, fluorescence intensities were measured and compared to DMSO controls. Fluorescence of the A11 2-AP DNA sample was quenched by almost 100%, while the quenching percentages were 80% and 70% for A18 and A24 2-AP DNAs, respectively (FIG. 24B, FIGS. 25A-25C). […]
# MYCN G4 DNA [3] = test: DMS footprinting of 5′Cy5-labeled MYCN G4 DNA; assay type: binding, human
# Description: DMS footprinting. Footprinting of 5′Cy5-labelled DNA was performed as described in the literature (Zhang et al., JACS 2014, 136:1381-1390; Li et al., PNAS 2015, 112:14581-14586). […] Then, DNA solutions were diluted to 50 nM in corresponding buffers (2 mL final volume in each tube) and compound stock solutions (in DMSO) were added resulting in solutions with designed concentrations (resulting in 5% DMSO). After incubation for 30 min, the folded DNA samples were treated with 0.5% DMS for 10 min at RT and the reaction was stopped by adding 200 μL stop buffer (2.5 M NH4OAc, 0.1 M β-mercaptoethanol, 1 mg/mL calf thymus DNA). After phenol/chloroform/isoamyl alcohol extraction and ethanol precipitation, the DNAs were dissolved in 50 μL of nuclease free water. An equal volume of 10% piperidine was added to each tube, and the mixed solutions were heated at 90° C. for 30 min, followed by quick chilling on ice. The DNAs were again subjected to phenol/chloroform/isoamyl alcohol extraction and ethanol precipitation. The precipitated DNAs were dissolved in 10 μL of nuclease free water, denatured at 95° C. for 5 min, and resolved on a 17% denaturing polyacrylamide gel. After gel running, Cy5-labeled DNA fragments were visualized on a Typhoon Imager (Amersham) and digitized using Image J software.
# In this example, DMS-footprinting was conducted by using 5′-Cy5-labeled MYCN hairpin-G4 DNA. […]
"Kd ([2]; 5′-Cy5 labeled constructs without hairpin, read-out: binding affinity to mutated long loop and truncated MYCN G4 DNAs) [µM]",fold weaker binding than wild type MYCN G4 ([2]; mutated/truncated vs wild type) [fold],Compound,Kd (MYCN G4 DNA [1]) [µM],positive binding in FIA (>10% quenching) (MYCN G4 DNA [1]),effect on dsDNA melting (dsDNA),effect of excess tRNA on binding affinity (MYCN G4 DNA with 10×tRNA),binding affinity to mutated long loop and truncated MYCN G4 DNAs ([2]; 5′-Cy5 labeled constructs without hairpin),"protection of guanines from DMS (MYCN G4 DNA [3]; 10 mM LiCl + 10 mM NaCl Tris buffer, 0-100 nM compound)","protection of guanines from DMS (MYCN G4 DNA [3]; 5 mM KCl buffer, compound at concentrations according to KD)"
,,CCCN1CCN(c2nnc(-n3cccc3CNCCCN3CCCCCC3)s2)CC1 [Compound 1],20.8 ± 2.2,hits,Neither of the compounds showed a measurable effect,no effect,comparable to wild type,,
,,"COc1ccc(-c2noc(-c3ccc(NCCCNc4c5ccc(Cl)cc5nc5ccc(OC)cc45)nn3)n2)cc1 [B33, N^1-(6-chloro-2-methoxyacridin-9-yl)-N^3-(6-(3-(4-methoxyphenyl)-1,2,4-oxadiazol-5-yl)pyridazin-3-yl)propane-1,3-diamine]",,,,,,"protection of G2-9, G10-12, and G17-21",
> 100,~30,"COc1ccc(-c2noc(-c3ccc(NCCCN4CCCC4)nn3)n2)cc1 [MY-1, 6-(3-(4-methoxyphenyl)-1,2,4-oxadiazol-5-yl)-N-(3-(pyrrolidin-1-yl)propyl)pyridazin-3-amine]",3.5 ± 1.6,hits,Neither of the compounds showed a measurable effect,no effect,,,"G8, G9, G16, G17 were protected considerably, while G13-G15 were slightly protected"
